Test results: patent US8178530B2, “Imidazolopyrazine compounds useful for the treatment of degenerative and inflammatory diseases” (Janssen Pharmaceutica NV, priority 2006, dated 2012)

Tests used:
MMP1 expression by SFs = test: 'MMP assay': MMP1 expression by 'complex trigger' activated synovial fibroblasts (MMP1 ELISA); type: cell-based, human; settings: Homo sapiens, Fibroblast, RASFs, 48 hrs
Description: A 384-well format ELISA for measurement of MMP1 is developed. Various primary antibodies are tested, as well as various ELISA protocols. The following protocol is developed and validated to measure MMP1 levels in SF supernatant in 384 well plates: white Lumitrac 600 384 well plates (Greiner) are coated with 2 μg/mL anti-MMP1 antibody MAB1346 (Chemicon). The antibody is diluted in buffer 40 (1.21 g Tris base (Sigma), 0.58 g NaCl (Calbiochem) and 5 ml 10% NaN3 (Sigma) in 1 L milliQ water and adjusted to pH 8.5). After overnight incubation at 4° C., plates are washed with PBS (80 g NaCl, 2 g KCl (Sigma), 11.5 g Na2HPO4.7H2O and 2 g KH2PO4 in 10 L milliQ; pH 7.4) and blocked with 100 μL/well Casein buffer (2% Casein (VWR International) in PBS). Next day, casein buffer is removed from ELISA plates and replaced by 50 μL/well EC buffer (4 g casein, 2.13 g Na2HPO4 (Sigma), 2 g bovine albumin (Sigma), 0.69 g NaH2PO4.H2O (Sigma), 0.5 g CHAPS (Roche), 23.3 g NaCl, 4 mL 0.5 M EDTA pH 8 (Invitrogen), 5 mL 10% NaN3 in 1 L milliQ and adjusted to pH 7.0). 0.25 mM DTT (Sigma) is added to the thawed samples plates. After removal of the EC buffer, 20 μL of sample is transferred to the ELISA plates. After overnight incubation at 4° C. plates are washed twice with PBS and once with PBST (PBS with 0.05% Tween-20 (Sigma)) and incubated with 35 μL/well biotinylated anti-MMP1 antibody solution (R&D). This secondary antibody is diluted in buffer C (0.82 g NaH2PO4.H2O, 4.82 g Na2HPO4, 46.6 g NaCl, 20 g bovine albumin and 4 mL 0.5M EDTA pH 8 in 2 L milliQ and adjusted to pH 7.0) at a concentration of 5 μg/mL. After 2 h of incubation at RT, plates are washed as described above and incubated with 50 μL/well streptavidin-HRP conjugate (Biosource). Streptavidin-HRP conjugate is diluted in buffer C at a concentration of 0.25 μg/mL. After 45 min, plates are washed as described above and incubated for 5 min with 50 μL/well BM Chem ELISA Substrate (Roche). Readout is performed on the Luminoscan Ascent Luminometer (Labsystems) with an integration time of 200 msec or with an Envision reader (Perkin Elmer).
The increase of MMP1 expression by SFs upon treatment with cytokines relevant in the field of RA (TNF-α, IL1β and OSM) or a combination thereof is shown in FIG. 2 as white bars. For this experiment, SFs are seeded in 96 well plates, 3,000 cells/well. 24 h later, the medium is changed to M199 medium supplemented with 1% FBS. One day after the medium change, cytokines or combinations thereof are added to the cultures, each cytokine being added to a final concentration of 25 ng/mL. 72 h after cytokine addition, the supernatant is collected and processed in the MMP1 ELISA as described in the protocol given above. In parallel with this experiment, SFs are triggered, using the same protocol, with the supernatant of THP1 cells (2-fold diluted in M199+1% FBS) treated with the same cytokines or combinations of cytokines for 48 h in M199 medium+1% FBS. The induction of the MMP1 expression by SFs triggered with the supernatants of TNF-α-treated THP1 cells is stronger (>4.5 fold induction) as compared to the SFs triggered with recombinant TNF-α alone (3-fold induction) and almost equals the 5-fold induction obtained by a mixture of 3 purified cytokines (TNF-α, IL1βb, OSM). […] As the role of TNF-α in the RA pathogenesis is validated (TNF-α-blockers such as Infliximab and Etanercept show some efficacy in the treatment of RA patients) and the THP-1 cells are representative for monocytes/macrophages present in the joint of RA patients, the TNF-α-based trigger mixture prepared by contacting THP-1 cells with TNF-α will contain factors present in the joints of RA patients and subsequently is relevant to RA. This TNF-α-based complex trigger, further referred to as the ‘complex trigger’, will further be used as basis for the ‘MMP assay’.
Dexamethasone is shown to dose-dependently reduce amounts of MMP1 produced by complex trigger activated SFs. […]

MAPKAPK5 = target: T1, MAPKAPK5 (Homo sapiens, UniProt Q8IW41); test: MAPKAP-K5 assay (FlashPlate, 33P-ATP); type: biochemical; settings: 0.6 μM ATP, 30 minutes at room temperature
T1 construct: 1 mU MAPKAP-K5
T1 sequence (Q8IW41 1-473): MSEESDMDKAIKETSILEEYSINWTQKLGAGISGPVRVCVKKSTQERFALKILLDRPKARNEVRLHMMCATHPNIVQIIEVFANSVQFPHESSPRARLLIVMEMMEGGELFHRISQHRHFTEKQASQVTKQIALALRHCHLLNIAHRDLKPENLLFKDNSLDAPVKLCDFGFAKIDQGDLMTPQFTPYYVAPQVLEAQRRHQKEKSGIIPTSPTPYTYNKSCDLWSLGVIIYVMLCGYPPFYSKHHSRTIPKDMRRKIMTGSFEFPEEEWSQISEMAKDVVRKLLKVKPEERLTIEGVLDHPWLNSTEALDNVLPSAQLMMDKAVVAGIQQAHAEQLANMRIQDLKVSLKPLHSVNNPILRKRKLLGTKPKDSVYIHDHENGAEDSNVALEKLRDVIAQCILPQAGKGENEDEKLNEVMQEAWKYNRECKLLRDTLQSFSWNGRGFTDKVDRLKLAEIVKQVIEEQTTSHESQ
Description: 3 μM MAPKAP-K5 peptide substrate

Row | Structure (SMILES) | IC50 (MAPKAPK5) [µM] | EC50 (MMP1 expression by SFs) [µM]
1 | CCN(CC)CCNC(=O)c1ccc(Nc2ncc(-c3cc[nH]c(=O)c3)n3ccnc23)cc1 [Compound 99] | 0.101 to 0.5 | > 1
2 | CCN(CC)CCNC(=O)c1ccc(Nc2ncc(-c3cncnc3)n3ccnc23)cc1 [Compound 87] | > 1 | > 1
3 | O[C@H]1CC[C@H](Nc2ncc(-c3cn[nH]c3)n3ccnc23)CC1 [Compound 25] | > 1 | > 1
4 | NS(=O)(=O)c1ccc(-c2cnc(Nc3ccc(N4CCOCC4)cc3)c3nccn23)cc1 [Compound 29] | > 1 | > 1
5 | O=C(NCCO)c1ccc(Nc2ncc(-c3cn[nH]c3)n3ccnc23)cc1 [Compound 61] | 0.501 to 1 | > 1
6 | CCN(CCO)c1ccc(Nc2ncc(-c3ccc(N)cc3)n3ccnc23)cc1 [Compound 6] | > 1 | > 1
7 | CCN(CC)CCNC(=O)c1ccc(Nc2ncc(-c3cccs3)n3ccnc23)cc1 [Compound 78] | > 1 | > 1
8 | CCN(CC)CCNC(=O)c1ccc(Nc2ncc(-c3cn[nH]n3)n3ccnc23)cc1 [Compound 84] | 0.501 to 1 | > 1
9 | CCN(CC)CCNC(=O)c1ccc(Nc2ncc(-c3c(C)n[nH]c3C)n3ccnc23)cc1 [Compound 81] | > 1 | > 1
10 | CN1CCN(c2ccc(Nc3ncc(-c4ccc(C(=O)NC5CC5)cc4)n4ccnc34)cc2)CC1 [Compound 117] | > 1 | > 1
11 | CCN(CC)CCNC(=O)c1ccc(Nc2ncc(-c3ccc(C(=O)O)cc3)n3ccnc23)cc1 [Compound 47] | > 1 | > 1
12 | CCN(CC)c1ccc(Nc2ncc(-c3cn[nH]c3)n3ccnc23)cc1 [Compound 9] | 0.501 to 1 | > 1
13 | CS(=O)(=O)c1ccc(Nc2ncc(-c3ccc(C(N)=O)cc3)n3ccnc23)cc1 [Compound 97, 4-[8-(4-Methanesulfonyl-phenylamino)-imidazo[1,2-a]pyrazin-5-yl]-benzamide] | > 1 | > 1
14 | CCN(CC)CCNC(=O)c1ccc(Nc2ncc(-c3cn[nH]c3)n3ccnc23)cn1 [Compound 103, 5-[5-(1H-Pyrazol-4-yl)-imidazo[1,2-a]pyrazin-8-ylamino]-pyridine-2-carboxylic acid (2-diethylamino-ethyl)-amide] | 0.501 to 1 | > 1
15 | c1cncc(Nc2ncc(-c3cn[nH]c3)n3ccnc23)c1 [Compound 42] | > 1 | > 1
16 | NC(=O)c1cccc(Nc2ncc(-c3cn[nH]c3)n3ccnc23)c1 [Compound 10] | > 1 | > 1
17 | O=C(NCc1cccnc1)c1ccc(Nc2ncc(-c3cc[nH]c(=O)c3)n3ccnc23)cc1 [Compound 108, 4-[5-(2-Oxo-1,2-dihydropyridin-4-yl)imidazo[1,2-a]pyrazin-8-ylamino]-N-pyridin-3-ylmethyl benzamide] | 0.501 to 1 | 0.101 to 0.5
18 | O=C(O)c1ccc(-c2cnc(Nc3ccc(N4CCOCC4)cc3)c3nccn23)cc1F [Compound 39] | > 1 | > 1
19 | CCOc1cc(-c2cnc(Nc3ccc(N4CCOCC4)cc3)c3nccn23)ccn1 [Compound 107] | > 1 | > 1
20 | CCN(CCO)c1ccc(Nc2ncc(-c3ccc(O)cc3)n3ccnc23)cc1 [Compound 5] | > 1 | 0.101 to 0.5
21 | Fc1ccc(Nc2ncc(-c3cn[nH]c3)n3ccnc23)cc1Cl [Compound 17] | > 1 | > 1
22 | NC(=O)c1ccc(Nc2ncc(-c3cn[nH]c3)n3ccnc23)nc1 [Compound 38] | > 1 | > 1
23 | CCN(CCO)c1ccc(Nc2ncc(-c3cccc(N)c3)n3ccnc23)cc1 [Compound 7] | > 1 | > 1
24 | CCN(CC)CCNC(=O)c1ccc(Nc2ncc(-c3cnc(O)nc3O)n3ccnc23)cc1 [Compound 80] | > 1 | > 1

Now from value to compound, other results behind:

Row | IC50 (MAPKAPK5) [µM] | Structure (SMILES) | EC50 (MMP1 expression by SFs) [µM]
25 | 0.001 to 0.1 | CC(C)N1CCN(c2ccc(Nc3ncc(-c4cc(F)c5c(c4)CNC5=O)n4ccnc34)cc2)CC1 [Compound 220, 7-Fluoro-5-{8-[4-(4-isopropyl-piperazin-1-yl)phenylamino]imidazo[1,2-a]pyrazin-5-yl}-2,3-dihydroisoindol-1-one] | > 1
26 | > 1 | Cn1nnc(-c2ccc(Nc3ncc(-c4ccc(C(N)=O)cc4)n4ccnc34)cc2)n1 [Compound 170] | 0.101 to 0.5
27 | 0.101 to 0.5 | CC(C)N1CCN(c2ncc(Nc3ncc(-c4ccc5c(c4)CNC5=O)n4ccnc34)cn2)CC1 [Compound 219] | 0.501 to 1
28 | > 1 | Cc1cc(-c2cnc(Nc3ccc(N4CCOCC4)cc3)c3nccn23)cc(=O)[nH]1 [Compound 174, 6-Methyl-4-[8-(4-morpholin-4-ylphenylamino)-imidazo[1,2-a]pyrazin-5-yl]-1H-pyridin-2-one] | 0.101 to 0.5
29 | 0.101 to 0.5 | CC(C)N1CCN(c2ccc(Nc3ncc(-c4cc5c(o4)CNC5=O)n4ccnc34)cc2)CC1 [Compound 222] | 0.501 to 1
30 | 0.101 to 0.5 | CC(C)N1CCC(c2ccc(Nc3ncc(-c4csc(C(N)=O)c4)n4ccnc34)cc2)CC1 [Compound 199, 4-{8-[4-(1-Isopropylpiperidin-4-yl)phenyl-amino]imidazo[1,2-a]pyrazin-5-yl}thiophene-2-carboxylic acid amide] | 0.101 to 0.5
31 | > 1 | COc1cc(Nc2ncc(-c3csc(C(N)=O)c3)n3ccnc23)ccc1C(=O)NCc1ccc(C)nc1 [Compound 190, 4-(8-{3-Methoxy-4-[(6-methylpyridin-3-ylmethyl)carbamoyl]phenylamino}imidazo[1,2-a]pyrazin-5-yl)thiophene-2-carboxylic acid amide] | 0.101 to 0.5
32 | > 1 | NC(=O)c1ccc(-c2cnc(Nc3cccc(N4CCOCC4)c3)c3nccn23)cc1 [Compound 172] | > 1
33 | 0.101 to 0.5 | O=C1NCc2cc(-c3cnc(Nc4ccccc4)c4nccn34)ccc21 [Compound 213] | 0.101 to 0.5
34 | > 1 | CC(C)N1CCN(c2ccc(Nc3ncc(-c4ccc5c(c4)C(C)(C)NC5=O)n4ccnc34)cc2)CC1 [Compound 227] | > 1
35 | > 1 | NC(=O)c1nc(-c2cnc(Nc3ccc(N4CCOCC4)cc3)c3nccn23)cs1 [Compound 164] | > 1
